Measured values as given in patent US9353084B2, “2-amino 3,5,5-trifluoro-3,4,5,6-tetrahydropyridines as BACE1 inhibitors for treatment of Alzheimer's disease” (H. Lundbeck A/S, priority 2014, dated 2016).
Like-named read-outs stand apart in the source and are kept apart here.

Assays:
human BACE1 = human BACE1 (Homo sapiens (Human), UniProt P56817); test: BACE1 binding assay (SPA-based, radioligand displacement); settings: pH 4.5, Ki calculated from IC50
Procedure: The binding assay was performed as SPA-based assay using a biotinylated form of human BACE1 recombinantly expressed and subsequently purified from Freestyle HEK293 cells. The binding assay was run in a 50 mM sodium acetate buffer, pH 4.5 containing 50 mM NaCl and 0.03% Tween-20 in white clear bottom 384 plates (Corning #3653). 10 nM (final concentration) radioligand ([^3H]—N-((1S,2R)-1-benzyl-3-cyclopropylamino-2-hydroxy-propyl)-5-(methanesulfonyl-methyl-amino)-N—((R)-1-phenyl-ethyl)-isophthalamide) (TRQ11569 purchased from GE Healthcare) was mixed with test compound at a given concentration, 6 nM (final concentration) human BACE1 and 25 μg Streptavidin coated PVT core SPA beads (RPNQ0007, GE Healthcare Life Sciences) in a total volume of 40 μl. Several concentrations of each test compound were tested in the assay for IC50 determination. The plates were incubated for one hour at room temperature and counted in a Wallac Trilux counter. Total and non-specific binding were determined using buffer and 1 μM (final concentration) of the high affinity BACE1 reference inhibitor (S)-6-[3-chloro-5-(5-prop-1-ynyl-pyridin-3-yl)-thiophen-2-yl]-2-imino-3,6-dimethyl-tetrahydro-pyrimidin-4-one, respectively. For each test compound, a IC50 value (the concentration mediating 50% inhibition of the specific binding of the radioligand) was determined from concentration-response curve and used to calculate the Ki from the equation Ki=IC50/(1+L/Kd), where L and Kd are the final concentration of the radioligand used in the assay and the dissociation constant of the radioligand, respectively. The Kd of the radioligand was determined from saturation binding experiments.

[1] = Brain and plasma exposure in rats after oral dosing (DMPK analysis); format: in vivo; settings: male, Sprague Dawley, 3 hours post dose, rat, read-out: Brain/Plasma ratio
Procedure: (§1) Young adult Male Sprague Dawley rats of approximately 250 g weight were purchased from Charles River and received 0-30 mg/kg of vehicle (10% HP betaCD+1M MeSO4, pH 2.5) or test compounds (dissolved in vehicle) only by oral gavage (p.o). The compounds are dosed at a volume of 5 ml/kg. Cohorts of 5-10 animals were established for each treatment condition.
(§2) At T=180 minutes after initial dosing the animals were stunned and decapitated with a guillotine. Trunk-blood was sampled in EDTA coated tubes after decapitation of the animal. The blood was centrifuged at 2200 G at 4° C. for 15 minutes and the plasma was collected and frozen at −80° C. The blood was aliquoted for Aβ ELISA and DMPK analysis Immediately following sacrifice, the brain was extracted and split into 2 halves. The right hemibrains were snap frozen on dry ice and stored at −80° C. The left half was dissected; with the front forebrain taken for Aβ ELISA and the remainder used for DMPK analysis. These samples were also snap frozen on dry ice and stored at −80° C. until use for analysis.
Compounds 1, 5, 17, 18, and 24 were administered at doses of 10 or 30 mg/kg p.o. and brain and plasma samples were collected at 3 hours post dose and the following exposures and reductions in Aβ40 levels were measured as described above.

Aβ40 = test: Assessment of Aβ40 levels in rat brain and plasma following BACE1 inhibition (ELISA); format: in vivo; settings: 3 hours post dose, vs vehicle
Procedure: as §1, §2
The cortex samples were thawed slightly on wet ice before they were homogenized with a small volume dispersing instrument (T10 basic ULTRA-TURRAX®) which was set at speed 5 for approximately 5-7 sec. The tissue was processed in a 10 times volume of the weight, for example 100 mg of tissue was homogenized in 1000 μL of Homogenization buffer. Homogenization buffer: 50 ml Milli Q water+[…]+0.2% Diethylamin (DEA)+1 tablet of Complete Protease inhibitor cocktail+1 nM 4-(2-aminoethyl)benzenesulfonyl fluoride hydrochloride irreversible serine protease inhibitor (AEBSF).
After homogenization 450 μL aliquots of the samples are collected into a 1.5 ml Eppendorf tube and placed on wet ice, 0.5% NP-40 (50 ul) was added to all samples and then they were incubated on ice for 30 min. After which all samples were sonicated using an Ultrasonic homogenizer with 20 kHz homogeneous sound (SONOPLUS HD2070, Bandelin Electronic) 10 pulse set at 12-13% power to extract all the Aβ species. The samples were then centrifuged (Ole Dich 157 MPRF Micro centrifuge) at 20000 G for 20 minutes at 4° C. After centrifugation 285 μL of the supernatant was pipetted into 600 μL microtubes tubes and neutralized with 15 μL of 1M Tris-HCL buffer.
WAKO 294-62501 Human/Rat Abeta amyloid (40) kit was used for all ELISA analyses. 30 μL plasma samples or 30 μL of the cortex supernatants generated as described above were placed in 600 μL microtubes tubes on wet ice. To this 30 μL of 8M Urea (AppliChem A1049, 9025) are added to generate a 2-fold dilution. Both plasma and cortex supernatants are incubated on ice for 30 min. Standard rows were prepared from the standard peptide stock provided in the kit and standard diluent containing 1.6M Urea (200 μL 8M Urea+800 μL of standard diluent) and 0.8M Urea (400 μL 8M Urea+3600 μL Standard diluent). A serial 2-fold dilution of Aβ40 from 100 pmol/ml to 0 pmol/L was prepared for the assay.
After incubation with urea, all samples were further diluted by addition of 5 times standard diluent from the Kit. This was done by adding 240 μL Standard Diluent to 60 μL sample/urea mixture, which was then mixed well. 100 μL of each diluted sample was pipetted into designated wells of the ELISA plate in duplicates. The plate was then covered and incubated overnight at 4° C. The following day, the ELISA kit was brought to room temperature before use. The incubated plate was washed 5 times with the 20× washing solution diluted in Milli Q water. 100 μL HRP-conjugate was applied to each well, and the plate was covered and incubates at 4° C. for 1 hr. The wash was repeated again for 5 times. 100 μL 3,3′,5,5′-Tetramethylbenzidine (TMB) solution was applied to each well and the plate was covered and incubated in the dark at room temperature for 30 minutes. […]

Chain of human BACE1 (P56817 46-501): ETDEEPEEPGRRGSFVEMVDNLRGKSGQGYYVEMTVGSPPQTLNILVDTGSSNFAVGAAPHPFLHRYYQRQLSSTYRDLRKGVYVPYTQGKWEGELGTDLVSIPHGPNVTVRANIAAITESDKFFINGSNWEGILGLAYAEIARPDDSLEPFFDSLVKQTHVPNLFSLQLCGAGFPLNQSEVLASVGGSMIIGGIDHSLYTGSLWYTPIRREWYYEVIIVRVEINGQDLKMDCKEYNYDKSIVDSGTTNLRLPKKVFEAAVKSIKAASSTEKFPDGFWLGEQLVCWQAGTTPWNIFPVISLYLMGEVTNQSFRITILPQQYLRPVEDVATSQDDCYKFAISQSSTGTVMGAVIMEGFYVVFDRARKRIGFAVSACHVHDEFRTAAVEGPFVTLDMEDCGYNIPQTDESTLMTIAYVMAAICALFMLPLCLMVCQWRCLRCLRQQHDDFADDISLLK

Compound	Ki (human BACE1) [nM]	Kp at 3 h ([1]; 30 mg/kg p.o.)	Aβ40 reduction, Brain Rat (Aβ40; 30 mg/kg p.o.) [%]	Aβ40 reduction, Plasma Rat (Aβ40; 30 mg/kg p.o.) [%]	Kp at 3 h ([1]; 10 mg/kg p.o.)	Aβ40 reduction, Brain Rat (Aβ40; 10 mg/kg p.o.) [%]	Aβ40 reduction, Plasma Rat (Aβ40; 10 mg/kg p.o.) [%]
COc1ccc(C(=O)Nc2ccc(F)c([C@@]3(C)N=C(N)[C@@](C)(F)CC3(F)F)c2)nc1 [Compound 17, N-(3-((2R,5S)-6-amino-3,3,5-trifluoro-2,5-dimethyl-2,3,4,5-tetrahydropyridin-2-yl)-4-fluorophenyl)-5-methoxypicolinamide]	11	1.48	63	49	–	–	–
Cc1cc(C#N)cnc1C(=O)Nc1ccc(F)c([C@@]2(C)N=C(N)[C@@](C)(F)CC2(F)F)c1 [Compound 18, N-(3-((2R,5S)-6-amino-3,3,5-trifluoro-2,5-dimethyl-2,3,4,5-tetrahydropyridin-2-yl)-4-fluorophenyl)-5-cyano-3-methylpicolinamide]	4.3	0.54	61	50	0.53	66	54
C[C@@]1(F)CC(F)(F)[C@@](C)(c2cc(NC(=O)c3cnc(C(F)F)cn3)ccc2F)N=C1N [Compound 24, N-(3-((2R,5R)-6-amino-3,3,5-trifluoro-2,5-dimethyl-2,3,4,5-tetrahydropyridin-2-yl)-4-fluorophenyl)-5-(difluoromethyl)pyrazine-2-carboxamide]	420	1.2	49	61	1.39	15	28
